One data set concerns Leishmania donovani. The experiment in a line: Antileishmanial activity against Leishmania donovani promastigotes assessed as parasite growth inhibition. In kind it is functional, organism-based.
The nature of data set [1]: Cytotoxicity against mouse peritoneal macrophages assessed as reduction in cell viability incubated for 24 hrs by MTT assay. It is filed as toxicity, cell-based, Peritoneal macrophage. On the technique in general: Formazan colour is commonly taken as a measure of viable cells.
Data set [2] has as its system Leishmania major. Kind of data set: Antileishmanial activity against Leishmania major MRHO/IR/75/E promastigotes assessed as parasite growth inhibition incubated for 24 hrs by MTT assay. It is filed as functional, organism-based.
The subject of data set [3] is Leishmania major. Kind of data set: Antileishmanial activity against Leishmania major promastigotes assessed as parasite growth inhibition at 1 uM incubated for 72 hrs by MTT assay. In kind it is functional. Conditions: read-out: GI.
Data set [4] deals with Leishmania major. The experiment in a line: Antileishmanial activity against Leishmania major promastigotes assessed as parasite growth inhibition at 0.1 uM incubated for 72 hrs by MTT assay. In kind it is functional. Conditions: read-out: GI.
Data set [5] deals with Leishmania major. Kind of data set: Antileishmanial activity against Leishmania major promastigotes assessed as parasite growth inhibition at 100 uM incubated for 72 hrs by MTT assay. It is filed as functional. Conditions: read-out: GI.
Data set [6] concerns Leishmania major. Kind of data set: Antileishmanial activity against Leishmania major promastigotes assessed as parasite growth inhibition at 10 uM incubated for 72 hrs by MTT assay. Conditions: read-out: GI. It is filed as functional.
Data set [7] deals with Leishmania aethiopica. Kind of data set: Antileishmanial activity against Leishmania aethiopica axenic amastigotes assessed as parasite growth inhibition incubated for 72 hrs by resazurin staining based analysis. In kind it is functional, organism-based. (The colour change of resazurin is a common sign of viable cells or microbes.)
In data set [8] the test system is Leishmania aethiopica. Kind of data set: Antileishmanial activity against Leishmania aethiopica promastigotes assessed as parasite growth inhibition incubated for 24 hrs by alamar blue staining based analysis. It is filed as functional, organism-based.
Data set [9] deals with Leishmania major. Kind of data set: Antileishmanial activity against Leishmania major assessed as inhibition of parasite growth. It is filed as functional, organism-based.

One may read the IC50 as the point on the concentration scale where inhibition reaches its midpoint. For `CN1CCN(C(c2c(O)c3ccccc3oc2=O)c2c[nH]c3ccccc23)CC1` (stereo unspecified), the IC50 in the data set with Leishmania donovani amounted to 13.1 µM.

Turning to `Cc1cccc2cc(C(c3c(O)c4ccccc4oc3=O)N3CCN(C)CC3)c(Cl)nc12` (stereo unspecified), the IC50 with Leishmania donovani was 6.9 µM.

Take `O=C(CSc1nnc(-c2ccc([N+](=O)[O-])o2)s1)NCc1ccccc1`: the IC50 at 24 h in data set [1] came out at 86.9 µM. In the data set with Leishmania major [2], the IC50 was 46.7 µM.

In the case of `C[C@@H]1[C@H](O)[C@@H](C)/C=C/C=C/C=C/C=C/C=C/C=C/C=C/[C@H](O[C@@H]2O[C@H](C)[C@@H](O)[C@H](N)[C@@H]2O)C[C@@H]2O[C@](O)(C[C@@H](O)C[C@@H](O)[C@H](O)CC[C@@H](O)C[C@@H](O)CC(=O)O[C@H]1C)C[C@H](O)[C@H]2C(=O)O` [AMPHOTERICIN B], the inhibition of growth at 1 µM with Leishmania major [3] worked out at 74.8%. The inhibition of growth at 0.1 µM with Leishmania major [4] amounted to 69.8%. In addition, the inhibition of growth at 100 µM in the data set with Leishmania major [5] stood at 79.8%. Besides, in the data set with Leishmania major [6], the inhibition of growth at 10 µM amounted to 76.3%.

With `CCCNC(=O)CSc1nnc(-c2ccc([N+](=O)[O-])o2)s1`, in [1], the IC50 at 24 h came out at 59.7 µM. Further, the IC50 in the data set with Leishmania major [2] was determined as 19.5 µM.

For the compound `COc1ccc(CCNC(=O)CSc2nnc(-c3ccc([N+](=O)[O-])o3)s2)cc1OC`, the IC50 at 24 h in data set [1] turned out to be 56 µM. Further, in the data set on Leishmania major [2], the IC50 was determined as 19.1 µM.

With `COc1nc(OC)nc(N(CC(=O)[C@@H](N)C(C)C)CC(=O)[C@@H](N)C(C)C)n1`, the IC50 worked out at 0.22 µM with Leishmania aethiopica [7] and 1.4 µM with Leishmania aethiopica [8].

As to `O=[N+]([O-])c1ccc(-c2nnc(NCCCO)s2)s1`, the IC50 in the data set with Leishmania major [9] turned out to be 3 µM.

For `COCCCNc1nnc(-c2ccc([N+](=O)[O-])s2)s1`, the IC50 in the data set on Leishmania major [9] worked out at 3 µM.

With `COc1ccc(NC(=O)CCC(=O)O)c([N+](=O)[O-])c1`, the inhibition of growth at 1 µM with Leishmania major [3] amounted to 45.5%. Also, in the data set on Leishmania major [4], the inhibition of growth at 0.1 µM was determined as 59.3%. Further, the inhibition of growth at 100 µM in the data set on Leishmania major [5] turned out to be 56.8%. Besides, in the data set on Leishmania major [6], the inhibition of growth at 10 µM was 50.4%.

Take `O=c1oc2ccccc2c(O)c1C(c1ccoc1)N1CCOCC1` (stereo unspecified): the IC50 with Leishmania donovani is 14.7 µM.

Values taken from ChEMBL document CHEMBL5244214, “An update on small molecule strategies targeting leishmaniasis” (Eur J Med Chem, 2018).
